Measured values taken from patent US9216991B2 (Ares Trading S.A., priority 2012, dated 2015).
pIC50: −log10 of the molar value. Counter-ions that a name gives are not always drawn.

Molecular target: T1, IRAK4 (Homo sapiens, UniProt Q9NWZ3)
T1 construct: His (N); TEV cleavage site (N)
T1 sequence (Q9NWZ3 1-460): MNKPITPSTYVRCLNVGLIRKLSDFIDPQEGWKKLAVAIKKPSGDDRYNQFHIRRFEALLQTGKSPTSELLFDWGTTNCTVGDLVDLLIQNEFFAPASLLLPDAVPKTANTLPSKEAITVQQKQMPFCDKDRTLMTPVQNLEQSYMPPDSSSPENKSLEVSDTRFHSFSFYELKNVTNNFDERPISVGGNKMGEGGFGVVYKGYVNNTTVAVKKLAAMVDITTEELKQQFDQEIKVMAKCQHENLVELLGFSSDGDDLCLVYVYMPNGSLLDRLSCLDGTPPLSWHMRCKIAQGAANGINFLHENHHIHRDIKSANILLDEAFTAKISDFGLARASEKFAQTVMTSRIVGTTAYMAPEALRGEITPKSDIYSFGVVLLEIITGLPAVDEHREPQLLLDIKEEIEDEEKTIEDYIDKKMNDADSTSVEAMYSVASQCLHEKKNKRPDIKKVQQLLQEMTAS
Experiment: IRAK4 Enzymatic Assay
Type: biochemical
Settings: His-TEV-IRAK4 20 ng/well, ATP 2 μM, STK1-biotin peptide 300 nM, 3 hours at 30° C., FlashPlate radioactivity
Method: IRAK4 is a human purified recombinant enzyme (His-TEV-IRAK1 (194-712)
IRAK4 hydrolyses ATP, autophosphorylates and phosphorylates a Serine/Threonine generic peptidic substrate (STK: 61ST1BLC from CisBio International based in Bagnols/Cèze FR).
Measurement of IRAK-4 inhibition is performed in streptavidin coated 384 well FlashPlate (PerkinElmer #SMP410A). His-TEV-IRAK4 (20 ng/well), ATP (2 μM, [^33P]ATP 0.25 μCi/well), STK1-biotin peptide (300 nM) and compounds in DMSO (range of concentrations from 20 μM to 1nM) or controls (2% DMSO) are incubated for 3 hours at 30° C. in assay buffer: Hepes pH7.0 50 mM, Fatty acid-free BSA 0.1%, Dithiothreitol DTT 2 mM, MgCl2 10 mM, EGTA 0.5 mM, Tween-20 0.01%, MnCl2 5 mM.
Kinase reaction is stopped by addition of EDTA. Supernatant is discarded, plates are washed three times with 150 mM NaCl and radioactivity is then measured in a Microbeta Trilux reader.

| pIC50 | SMILES |
| --- | --- |
| 6.00 to 7.00 | COCC1CCCN(C(=O)Cn2cc(-c3cnc(-c4cccc(-c5cnn(C)c5)c4)nc3)cn2)C1 (stereo not shown) [Example 88, 1-(3-Methoxymethyl-piperidin-1-yl)-2-(4-{2-[3-(1-methyl-1H-pyrazol-4-yl)-phenyl]-pyrimidin-5-yl}-pyrazol-1-yl)-ethanone] |
| > 7.00 | Cn1cc(-c2cccc(-c3ncc(-c4cnn([C@H]5CCC[S@@+]([O-])C5)c4)cn3)c2)cn1 (racemic) [Example 236, 2-[3-(1-Methyl-1H-pyrazol-4-yl)-phenyl]-5-[1-(Cis-1-oxo-tetrahydro-thiopyran-3-yl)-1H-pyrazol-4-yl]-pyrimidine] |
| 6.00 to 7.00 | c1cc(-c2cnoc2)cc(-c2ncc(-c3cnn(C4CCNCC4)c3)cn2)c1 [Example 13, 2-(3-Isoxazol-4-yl-phenyl)-5-(1-piperidin-4-yl-1H-pyrazol-4-yl)-pyrimidine hydrochloride] |
| > 7.00 | COCCNC(=O)[C@H]1CC[C@H](n2cc(-c3cnc(-c4cccc(-c5cnn(C)c5)c4)nc3)cn2)CC1 [Example 159, Trans-4-(4-{2-[3-(1-Methyl-1H-pyrazol-4-yl)-phenyl]-pyrimidin-5-yl}-pyrazol-1-yl)-cyclohexanecarboxylic acid (2-methoxy-ethyl)-amide] |
| 5.30 to 6.00 | CNC(=O)c1nn(C)cc1-c1cnc(-c2cccc(-c3cnn(C)c3)c2)nc1 [Example 144, 1-Methyl-4-{2-[3-(1-methyl-1H-pyrazol-4-yl)-phenyl]-pyrimidin-5-yl}-1H-pyrazole-3-carboxylic acid methylamide] |
| 6.00 to 7.00 | Cn1cc(-c2cccc(-c3ncc(-c4cnn(C5CCCC(=O)C5)c4)cn3)c2)cn1 (stereo not shown) [Example 195, 3-(4-{2-[3-(1-Methyl-1H-pyrazol-4-yl)-phenyl]-pyrimidin-5-yl}-pyrazol-1-yl)-cyclohexanone] |
| 5.30 to 6.00 | Cn1cc(-c2cccc(-c3ncc(-c4cnn([C@H]5CC[C@@H](N6CCOCC6)CC5)c4)cn3)c2)cn1 [Example 209, cis-4-[4-(4-{2-[3-(1-Methyl-1H-pyrazol-4-yl)-phenyl]-pyrimidin-5-yl}-pyrazol-1-yl)-cyclohexyl]-morpholine] |
| 5.30 to 6.00 | CCC(CO)NC(=O)Cn1cc(-c2cnc(-c3cccc(-c4cnn(C)c4)c3)nc2)cn1 (stereo not shown) [Example 60, N-(1-Hydroxymethyl-propyl)-2-(4-{2-[3-(1-methyl-1H-pyrazol-4-yl)-phenyl]-pyrimidin-5-yl}-pyrazol-1-yl)-acetamide] |
| > 7.00 | CN1CCN(C(=O)[C@H]2CC[C@H](n3cc(-c4cnc(-c5cccc(-c6cnn(C)c6)c5)nc4)cn3)CC2)CC1 [Example 160, Trans-(4-Methyl-piperazin-1-yl)-[4-(4-{2-[3-(1-methyl-1H-pyrazol-4-yl)-phenyl]-pyrimidin-5-yl}-pyrazol-1-yl)-cyclohexyl]-methanone] |
| 6.00 to 7.00 | COCCO[C@H]1CC[C@@H](n2cc(-c3cnc(-c4cccc(-c5cnn(C)c5)c4)nc3)cn2)CC1 [Example 218, cis-5-{1-[4-(2-Methoxy-ethoxy)-cyclohexyl]-1H-pyrazol-4-yl}-2-[3-(1-methyl-1H-pyrazol-4-yl)-phenyl]-pyrimidine] |
| > 7.00 | Cn1cc(-c2cccc(-c3ncc(-c4cnn([C@H]5CC[C@H](CO)CC5)c4)cn3)c2)cn1 [Example 238, Trans-[4-(4-{2-[3-(1-Methyl-1H-pyrazol-4-yl)-phenyl]-pyrimidin-5-yl}-pyrazol-1-yl)-cyclohexyl]-methanol] |
| > 7.00 | COCC(C)NC(=O)[C@H]1CC[C@H](n2cc(-c3cnc(-c4cccc(-c5cnn(C)c5)c4)nc3)cn2)CC1 (stereo partly shown) [Example 178, 4-(4-{2-[3-(1-Methyl-1H-pyrazol-4-yl)-phenyl]-pyrimidin-5-yl}-pyrazol-1-yl)-cyclohexanecarboxylic acid (2-methoxy-1-methyl-ethyl)-amide] |
| 6.00 to 7.00 | CC(C)N1C2CCCC1CC(n1cc(-c3cnc(-c4cccc(-c5cnn(C)c5)c4)nc3)cn1)C2 (stereo not shown) [Example 133, 9-Isopropyl-3-(4-{2-[3-(1-methyl-1H-pyrazol-4-yl)-phenyl]-pyrimidin-5-yl}-pyrazol-1-yl)-9-aza-bicyclo[3.3.1]nonane] |
| 5.30 to 6.00 | CN1CCN(C(=O)CCn2cc(-c3cnc(-c4cccc(-c5cnn(C)c5)c4)nc3)cn2)CC1 [Example 102, 1-(4-Methyl-piperazin-1-yl)-3-(4-{2-[3-(1-methyl-1H-pyrazol-4-yl)-phenyl]-pyrimidin-5-yl}-pyrazol-1-yl)-propan-1-one] |
| 6.00 to 7.00 | Cc1nn(C2CCC(O)CC2)cc1-c1cnc(-c2cccc(-c3cnn(C)c3)c2)nc1 (stereo not shown) [Example 291, 4-(3-Methyl-4-{2-[3-(1-methyl-1H-pyrazol-4-yl)-phenyl]-pyrimidin-5-yl}-pyrazol-1-yl)-cyclohexanol] |
| > 7.00 | CN(C)C(=O)[C@H]1CC[C@H](n2cc(-c3cnc(-c4cccc(-c5cnn(C)c5)c4)nc3)cn2)CC1 [Example 134, Trans-4-(4-{2-[3-(1-Methyl-1H-pyrazol-4-yl)-phenyl]-pyrimidin-5-yl}-pyrazol-1-yl)-cyclohexanecarboxylic acid dimethylamide] |
| 6.00 to 7.00 | CCOCC(=O)N1CCC(n2cc(-c3cnc(-c4cccc(-c5cnn(C)c5)c4)nc3)cn2)CC1 [Example 111, 2-Ethoxy-1-[4-(4-{2-[3-(1-methyl-1H-pyrazol-4-yl)-phenyl]-pyrimidin-5-yl}-pyrazol-1-yl)-piperidin-1-yl]-ethanone] |
| 6.00 to 7.00 | Cn1cc(-c2cccc(-c3ncc(-c4cnn(C5CCN(C(=O)C6CCCCO6)CC5)c4)cn3)c2)cn1 (stereo not shown) [Example 108, [4-(4-{2-[3-(1-Methyl-1H-pyrazol-4-yl)-phenyl]-pyrimidin-5-yl}-pyrazol-1-yl)-piperidin-1-yl]-(tetrahydro-pyran-2-yl)-methanone] |
| > 7.00 | Cn1cc(-c2cccc(-c3ncc(-c4cnn(CCc5ccncc5)c4)cn3)c2)cn1 [Example 53, 2-[3-(1-Methyl-1H-pyrazol-4-yl)-phenyl]-5-[1-(2-pyridin-4-yl-ethyl)-1H-pyrazol-4-yl]-pyrimidine] |
| 6.00 to 7.00 | Cn1cc(-c2cccc(-c3ncc(-c4cnn(C5C6COCC5CC(CO)C6)c4)cn3)c2)cn1 (stereo not shown) [Example 276, [9-(4-{2-[3-(1-Methyl-1H-pyrazol-4-yl)-phenyl]-pyrimidin-5-yl}-pyrazol-1-yl)-3-oxa-bicyclo[3.3.1]non-7-yl]-methanol] |
| 6.00 to 7.00 | Cn1cc(-c2cccc(-c3ncc(-c4cnn(CC(=O)N5CCCC5)c4)cn3)c2)cn1 [Example 9, 2-(4-{2-[3-(1-Methyl-1H-pyrazol-4-yl)-phenyl]-pyrimidin-5-yl}-pyrazol-1-yl)-1-pyrrolidin-1-yl-ethanone] |
| 5.30 to 6.00 | Cn1cc(-c2cccc(-c3ncc(-c4cnn(C5CNC5)c4)cn3)c2)cn1 [Example 26, 5-(1-Azetidin-3-yl-1H-pyrazol-4-yl)-2-[3-(1-methyl-1H-pyrazol-4-yl)-phenyl]-pyrimidine hydrochloride] |
| 5.30 to 6.00 | O=C(Cn1cc(-c2cnc(-c3cccc(-c4c[nH]nn4)c3)nc2)cn1)N1CCOCC1 [Example 79, 1-Morpholin-4-yl-2-(4-{2-[3-(1H-[1,2,3]triazol-4-yl)-phenyl]-pyrimidin-5-yl}-pyrazol-1-yl)-ethanone] |
| 6.00 to 7.00 | CN(C)C(=O)C(C)(C)n1cc(-c2cnc(-c3cccc(-c4cnn(C)c4)c3)nc2)cn1 [Example 149, N,N-Dimethyl-2-(4-{2-[3-(1-methyl-1H-pyrazol-4-yl)-phenyl]-pyrimidin-5-yl}-pyrazol-1-yl)-isobutyramide] |
| > 7.00 | CC(O)CCNC(=O)[C@H]1CC[C@H](n2cc(-c3cnc(-c4cccc(-c5cnn(C)c5)c4)nc3)cn2)CC1 (stereo partly drawn) [Example 228, trans-4-(4-{2-[3-(1-Methyl-1H-pyrazol-4-yl)-phenyl]-pyrimidin-5-yl}-pyrazol-1-yl)-cyclohexanecarboxylic acid (3-hydroxy-butyl)-amide] |
| 6.00 to 7.00 | CC(=O)N1[C@@H]2CC[C@H]1CC(n1cc(-c3cnc(-c4cccc(-c5cnn(C)c5)c4)nc3)cn1)C2 (stereo partly drawn) [Example 119, 1-[(1R,5S)-3-(4-{2-[3-(1-Methyl-1H-pyrazol-4-yl)-phenyl]-pyrimidin-5-yl}-pyrazol-1-yl)-8-aza-bicyclo[3.2.1]oct-8-yl]-ethanone] |
| 6.00 to 7.00 | Cn1cc(-c2cccc(-c3ncc(-c4cnn([C@@H]5CCC[S@@+]([O-])C5)c4)cn3)c2)cn1 (racemic) [Example 235, 2-[3-(1-Methyl-1H-pyrazol-4-yl)-phenyl]-5-[1-(Trans-1-oxo-tetrahydro-thiopyran-3-yl)-1H-pyrazol-4-yl]-pyrimidine] |
| 5.30 to 6.00 | CN(C)C(=O)[C@H]1CC[C@H](n2cc(-c3cnc(-c4cccc(-c5ccc(Cl)nn5)c4)nc3)cn2)CC1 [Example 234, Trans-4-(4-{2-[3-(6-Chloro-pyridazin-3-yl)-phenyl]-pyrimidin-5-yl}-pyrazol-1-yl)-cyclohexanecarboxylic acid dimethylamide] |
